Results reported in US7214690B2, “Tricyclic quinolinone and tricyclic quinoline androgen receptor modulator compounds and methods” (Ligand Pharmaceuticals Incorporated, priority 2001, dated 2007).
Read-outs that look alike come from different tables or passages of the source.

Columns and labels:
human AR = target: T1, human AR (Homo sapiens, UniProt P10275); assay: co-transfection assay, hAR in CV-1 cells (MTV-LUC reporter); assay type: cell-based; conditions: for AR Agonist CV-1 Cells Efficacy: agonist mode, luciferase production relative to DHT; for AR Agonist CV-1 Cells Efficacy / AR Antagonist CV-1 Cells Efficacy: hAR in CV-1 cells; for AR Antagonist CV-1 Cells Efficacy: antagonist mode, maximal inhibition of DHT-induced luciferase production
T1 construct: expressed in transfected cells; host or cells: CV-1 cells (African green monkey kidney fibroblasts)
T1 sequence (P10275 1-920): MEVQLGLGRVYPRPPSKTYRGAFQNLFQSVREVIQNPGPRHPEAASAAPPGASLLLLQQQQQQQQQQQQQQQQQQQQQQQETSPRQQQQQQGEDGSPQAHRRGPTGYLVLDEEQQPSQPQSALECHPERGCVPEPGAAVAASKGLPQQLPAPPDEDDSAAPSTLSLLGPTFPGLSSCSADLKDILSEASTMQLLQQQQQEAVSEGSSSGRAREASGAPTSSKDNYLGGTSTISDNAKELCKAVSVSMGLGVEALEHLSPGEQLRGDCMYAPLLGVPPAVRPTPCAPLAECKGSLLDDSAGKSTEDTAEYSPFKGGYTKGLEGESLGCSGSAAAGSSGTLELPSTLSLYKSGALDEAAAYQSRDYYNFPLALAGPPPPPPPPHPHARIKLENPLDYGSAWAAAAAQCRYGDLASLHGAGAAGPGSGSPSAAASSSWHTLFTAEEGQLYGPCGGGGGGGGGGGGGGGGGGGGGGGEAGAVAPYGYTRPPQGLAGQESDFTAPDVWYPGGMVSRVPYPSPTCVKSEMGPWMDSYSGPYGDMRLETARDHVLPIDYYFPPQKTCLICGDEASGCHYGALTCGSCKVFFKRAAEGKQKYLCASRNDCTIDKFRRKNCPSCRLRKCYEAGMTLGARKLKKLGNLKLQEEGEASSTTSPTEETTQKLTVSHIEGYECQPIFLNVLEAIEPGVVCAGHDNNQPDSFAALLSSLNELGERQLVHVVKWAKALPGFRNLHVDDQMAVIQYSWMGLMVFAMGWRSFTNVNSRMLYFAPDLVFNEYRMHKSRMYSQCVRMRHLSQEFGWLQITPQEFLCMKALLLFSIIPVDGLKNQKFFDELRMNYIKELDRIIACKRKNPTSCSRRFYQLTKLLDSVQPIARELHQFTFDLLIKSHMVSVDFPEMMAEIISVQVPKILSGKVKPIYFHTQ
Source text: The co-transfection assay provides a method for identifying functional agonists and partial agonists that mimic, or antagonists that inhibit, the effect of native hormones and quantifying their activity for responsive IR proteins. In this regard, the co-transfection assay mimics an in vivo system in the laboratory. Importantly, activity in the co-transfection assay correlates very well with known in vivo activity, such that the co-transfection assay functions as a qualitative and quantitative predictor of a tested compounds in vivo pharmacology. , See e.g., T. Berger et al. 41 J. Steroid Biochem. Molec.
(§1) CV-1 cells (African green monkey kidney fibroblasts) were cultured in the presence of Dulbecco's Modified Eagle Medium (DMEM) supplemented with 10% charcoal resin-stripped fetal bovine serum (CH-FBS) then transferred to 96-well microtiter plates one day prior to transfection.
The reporter plasmid, MTV-LUC, contains the cDNA for firefly luciferase (LUC) under control of the mouse mammary tumor virus (MTV) long terminal repeat, a conditional promoter containing an androgen response element. See e.g., Berger et al. supra. In addition, pRS-β-Gal, coding for constitutive expression of E. coli β-galactosidase (β-Gal), was included as an internal control for evaluation of transfection efficiency and compound toxicity.
(§2) Three to four replicates were used for each sample.
(§3) After 40 hours, the cells were washed with PBS, lysed with a Triton X-100-based buffer and assayed for LUC and β-Gal activities using a luminometer or spectrophotometer, respectively. For each replicate, the normalized response (NR) was calculated as: LUC response/β-Gal rate • where β-Gal rate=β-Gal/β-Gal incubation time.

ER = target: T2, ER (Homo sapiens, UniProt P03372); assay: co-transfection assay, ER; assay type: cell-based
T2 construct: expressed in transfected cells; host or cells: background cell substantially devoid of endogenous IRs (CV-1 described for the co-transfection assay)
T2 sequence (P03372 1-595): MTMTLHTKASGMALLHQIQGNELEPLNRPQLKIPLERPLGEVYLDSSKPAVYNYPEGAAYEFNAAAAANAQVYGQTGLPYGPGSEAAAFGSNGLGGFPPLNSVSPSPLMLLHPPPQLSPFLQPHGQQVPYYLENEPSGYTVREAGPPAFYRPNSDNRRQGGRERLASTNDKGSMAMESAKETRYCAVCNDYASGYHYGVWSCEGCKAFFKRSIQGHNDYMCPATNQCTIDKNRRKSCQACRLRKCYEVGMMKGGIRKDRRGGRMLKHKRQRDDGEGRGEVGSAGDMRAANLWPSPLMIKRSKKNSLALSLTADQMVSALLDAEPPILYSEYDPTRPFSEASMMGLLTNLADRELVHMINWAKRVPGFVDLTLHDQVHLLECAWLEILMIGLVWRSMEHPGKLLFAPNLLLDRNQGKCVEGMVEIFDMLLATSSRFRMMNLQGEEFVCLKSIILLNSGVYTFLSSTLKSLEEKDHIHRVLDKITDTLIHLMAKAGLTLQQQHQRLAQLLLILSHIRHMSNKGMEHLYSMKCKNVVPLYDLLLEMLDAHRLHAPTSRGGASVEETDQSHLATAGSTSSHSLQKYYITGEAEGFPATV
Method: as §1, §2, §3

CCCC1COc2c(ccc3[nH]c(=O)cc(C(F)(F)F)c23)N1 (racemic) [Compound 116, (±)-2,3,4,7-Tetrahydro-3-propyl-10-(trifluoromethyl)-8H-[1,4]oxazino[2,3-f]quinolin-8-one]
EC50 (human AR): > 10000 nM
AR Agonist CV-1 Cells Efficacy (human AR): na (not active (i.e. efficacy of <20 and potency of >10,000 nM for the cotransfection assay)
AR Antagonist CV-1 Cells Efficacy (human AR): 79%

CCCC1COc2c(ccc3[nH]c(=O)cc(C(F)(F)F)c23)N1C (racemic) [Compound 117, (±)-2,3,4,7-Tetrahydro-4-methyl-3-propyl-10-(trifluoromethyl)-8H-[1,4]oxazino[2,3-f]quinolin-8-one]
EC50 (human AR): > 10000 nM
AR Agonist CV-1 Cells Efficacy (human AR): na (not active (i.e. efficacy of <20 and potency of >10,000 nM for the cotransfection assay)
AR Antagonist CV-1 Cells Efficacy (human AR): 74%

C[C@@H]1Oc2c(ccc3[nH]c(=O)cc(C(F)(F)F)c23)N(CC(F)(F)F)[C@@H]1C (racemic) [Compound 136, (±)-(2S,3R)-2,3,4,7-Tetrahydro-2,3-dimethyl-4-(2,2,2-trifluoroethyl)-10-(trifluoromethyl)-8H-[1,4]oxazino[2,3-f]quinolin-8-one]
EC50 (human AR): 34 nM
AR Agonist CV-1 Cells Efficacy (human AR): 61%
AR Antagonist CV-1 Cells Efficacy (human AR): 24%

C[C@@H]1COc2c(ccc3[nH]c(=O)cc(C(F)(F)F)c23)N1C [Compound 102, (3R)-2,3,4,7-Tetrahydro-3,4-dimethyl-10-(trifluoromethyl)-8H-[1,4]oxazino[2,3-f]quinolin-8-one]
EC50 (human AR): > 10000 nM
AR Agonist CV-1 Cells Efficacy (human AR): na (not active (i.e. efficacy of <20 and potency of >10,000 nM for the cotransfection assay)
AR Antagonist CV-1 Cells Efficacy (human AR): 32%

C[C@@H]1COc2c(ccc3[nH]c(=O)cc(C(F)(F)F)c23)N1CC(F)(F)F [Compound 104, (3R)-2,3,4,7-Tetrahydro-3-methyl-4-(2,2,2-trifluoroethyl)-10-(trifluoromethyl)-8H-[1,4]oxazino[2,3-f]quinolin-8-one]
EC50 (human AR): 7 nM
AR Agonist CV-1 Cells Efficacy (human AR): 73%
AR Antagonist CV-1 Cells Efficacy (human AR): na (not active (i.e. efficacy of <20 and potency of >10,000 nM for the cotransfection assay)

CC[C@@H]1COc2c(ccc3[nH]c(=O)cc(C(F)(F)F)c23)N1 [Compound 107, (3R)-3-Ethyl-2,3,4,7-tetrahydro-10-(trifluoromethyl)-8H-[1,4]oxazino[2,3-f]quinolin-8-one]
EC50 (human AR): 301 nM
AR Agonist CV-1 Cells Efficacy (human AR): 17%
AR Antagonist CV-1 Cells Efficacy (human AR): 56%

CC[C@@H]1COc2c(ccc3[nH]c(=O)cc(C(F)(F)F)c23)N1CC [Compound 109, (3R)-3,4-Diethyl-2,3,4,7-tetrahydro-10-(trifluoromethyl)-8H-[1,4]oxazino[2,3-f]quinolin-8-one]
EC50 (human AR): 411 nM
AR Agonist CV-1 Cells Efficacy (human AR): 29%
AR Antagonist CV-1 Cells Efficacy (human AR): na (not active (i.e. efficacy of <20 and potency of >10,000 nM for the cotransfection assay)

CCN1c2ccc3[nH]c(=O)cc(C(F)(F)F)c3c2OC[C@H]1C(C)C [Compound 122, (3R)-4-Ethyl-2,3,4,7-tetrahydro-3-isopropyl-10-(trifluoromethyl)-8H-[1,4]oxazino[2,3-f]quinolin-8-one]
EC50 (human AR): 270 nM
AR Agonist CV-1 Cells Efficacy (human AR): 76%
AR Antagonist CV-1 Cells Efficacy (human AR): na (not active (i.e. efficacy of <20 and potency of >10,000 nM for the cotransfection assay)

C=CCN1c2ccc3[nH]c(=O)cc(C(F)(F)F)c3c2OC[C@H]1C(C)C [Compound 126, (3R)-4-Allyl-2,3,4,7-tetrahydro-3-isopropyl-10-(trifluoromethyl)-8H-[1,4]oxazino[2,3-f]quinolin-8-one]
EC50 (human AR): 35 nM

CN1CC(C)(C)Oc2c1ccc1[nH]c(=O)cc(C(F)(F)F)c21 [Compound 138, 2,3,4,7-Tetrahydro-2,2,4-trimethyl-10-(trifluoromethyl)-8H-[1,4]oxazino[2,3-f]quinolin-8-one]
EC50 (human AR): > 10000 nM
AR Agonist CV-1 Cells Efficacy (human AR): na (not active (i.e. efficacy of <20 and potency of >10,000 nM for the cotransfection assay)
AR Antagonist CV-1 Cells Efficacy (human AR): 90%

CC(C)(O)C(=O)Nc1ccc([N+](=O)[O-])c(C(F)(F)F)c1 [Flut, 2-hydroxyflutamide, reference compound]
EC50 (ER; agonist mode, read-out: ER Potency Agon): > 10000 nM
IC50 (ER; antagonist mode, read-out: ER Potency Antag): > 10000 nM

CC(=O)S[C@@H]1CC2=CC(=O)CC[C@]2(C)[C@H]2CC[C@@]3(C)[C@@H](CC[C@@]34CCC(=O)O4)[C@H]12 [Spir, spironolactone, reference compound]
EC50 (ER): > 10000 nM
IC50 (ER): > 10000 nM
